Assay results reported in ChEMBL document CHEMBL3507680, “University of Dundee, Gates Library screen for HepG2 cell viability”.

experiment: Human HepG2 cell viability assay in 384 well format; format: toxicity, cell-based; set-up: dose 125 nL, time 70.5 hour; cytotoxicity at 70.5 h: concentration not given beside the values; conditions: HepG2 cells, read-out: Inhibition

Point of comparison: `CC(C)(CNc1ccc2ccc(F)cc2n1)NS(C)(=O)=O`, cytotoxicity at 70.5 h -7.19%. Against it:
- NC(=O)c1ccc(C(=O)N(Cc2ccc(O)cc2)CC2CC2)cc1 — higher, 6.44%
- O=c1ccn(Cc2nc(-c3ccccc3F)cs2)c(=O)[nH]1 — higher, 0.45%
- NC(=O)NC(=O)CCn1ccc(-c2ccc(F)cc2)n1 — higher, -1.22%
- CC(C)c1cccc(NC(=O)N2CC(N(C)C)C2)c1 — higher, -0.462%
- NC(=O)NC(=O)CCn1ccc(-c2ccccc2)n1 — higher, 16%
- CN(C)S(=O)(=O)N1CCC(OCCCc2ccccc2)C1 (stereo not drawn) — higher, -0.922%
- CCS(=O)(=O)N1CCC(OCCCc2ccccc2)C1 (stereo not drawn) — higher, -3.57%
- Cc1cnn(CC2CCCN2c2ncnc3c2CCC3)c1 (stereo not drawn) — higher, 13.3%
- O=C(C1CCN(c2ccnc3ccc(Br)cc23)CC1)N1CCOCC1 — higher, 8.35%
- Cc1csc(N2CCCN(C(=O)c3ccsc3)CC2)n1 — lower, -12%
- CCn1cnnc1CNC(=O)C1CCCN(Cc2cccc(F)c2)C1 (stereo not drawn) — lower, -14.4%
- CC(C)CNC(=O)c1ccc(NC(=O)NC2CC2)cc1Cl — lower, -12.8%
- Cn1ccnc1CCNC(=O)C1CCCN(Cc2cccc(F)c2)C1 (stereo not drawn) — lower, -7.53%
- CC(C)C(C)(C#N)NC(=O)Cn1nnc(-c2cc3ccccc3o2)n1 (stereo not drawn) — higher, 18.2%
- O=C(NS(=O)(=O)Cc1ccon1)c1ccsc1 — higher, -3.39%
- Cc1nsc(N2CCN(C(=O)Nc3ccc4[nH]ccc4c3)CC2)n1 — higher, 1.81%
- CN1CCOC(C(=O)Nc2ccc3[nH]nnc3c2)C1 (stereo not drawn) — higher, -3.75%
- CC(NC(=O)N1CCSC(C)(C)C1)c1noc(-c2ccccc2)n1 (stereo not drawn) — higher, -0.307%
- COc1ccccc1CC(=O)NCc1ccnc(NC2CC2)c1 — higher, -0.149%
- CCSc1cncc(NCc2ccc(N3CCNC(=O)C3)cc2)n1 — higher, 3.68%
- CCOCCC(=O)NCc1ccnc(NC2CC2)c1 — higher, -3.85%
- CCC(C)(C)NC(=O)c1ccc(-c2ccco2)[nH]c1=O — higher, 0.821%
- CN1CCOC(C(=O)Nc2ccc3c(c2)nc(C2CC2)n3C)C1 (stereo not drawn) — higher, -3.17%
- Cc1ccc(C)c(CN(C)Cc2nnc3ccccn23)c1 — higher, 14.1%
- Cc1nsc(N2CCCN(C(=O)c3ccc4[nH]ccc4c3)CC2)n1 — higher, -3.86%
- CC(Cn1cccn1)NS(=O)(=O)Cc1ccc(F)cc1 (stereo not drawn) — higher, 5.43%
- Cc1ccc(O)c(C(=O)N2CCC(CN3CCCCCC3)CC2)c1 — higher, -6.42%
- CC(C)C(C)N1Cc2cccc(NCC(=O)N(C)C)c2C1 (stereo not drawn) — lower, -8.25%
- Cn1ccc(CN2CCCN(c3nccs3)CC2)cc1=O — higher, -1.81%
- Cc1csc(N2CCCN(Cc3ccn(C)c(=O)c3)CC2)n1 — higher, -3.93%
- COC(=O)c1cccc(S(=O)(=O)NC(=O)c2cccc(OC)c2OC)c1 — higher, -6.86%
- Cc1occc1C(=O)Nc1cc(N2CCNC2=O)ccc1Cl — higher, 6.66%
- Cc1nc(CNC(=O)C(C)(C)c2ccc(F)cc2)no1 — higher, 0.937%
- COc1ccc(-c2nc(CC(=O)N(C)CCC#N)cs2)cc1OC — higher, 5.07%
- CCC(=O)N1CCCN(C(=O)c2cc(C)cc(Br)c2O)CC1 — higher, -1.86%
- CC(=O)NC1CCN(c2ccc(C#N)cc2C(F)(F)F)CC1 — higher, -1.95%
- COCC(NC(=O)NCc1sc(C)nc1C)c1ccco1 (stereo not drawn) — higher, 7.86%
- Cc1noc2ncc(S(=O)(=O)Nc3cc(CC(C)(C)C)[nH]n3)cc12 — higher, 3.8%
- CC(C)N1Cc2cccc(NCC(=O)N(C)C)c2C1 — higher, -2.57%
- CCC[C@@H](NC(N)=O)C(=O)N1CCc2c(Cl)cccc2C1 — higher, -2.76%
- CC(C)N1Cc2cccc(NCC(=O)N(C)C3CCCCC3)c2C1 — higher, -0.0699%
- CC(C)CCC(C)NC(=O)Nc1ccccn1 (stereo not drawn) — higher, -2.67%
- CSc1ccc(OC(C)C(=O)Nc2cc(C)n[nH]2)cc1 (stereo not drawn) — higher, -1.12%
- OC(CN1CCCCc2ccccc21)Cn1cccn1 (stereo not drawn) — higher, 1.14%
- CN1CCOC(C(=O)N2CCC3(CCCCC3)C2)C1 (stereo not drawn) — higher, -5.38%
- CN1CCOC(C(=O)N2CCOC3(CCCC3)C2)C1 (stereo not drawn) — higher, -1.85%
- COCCN(C(=O)c1cc(-c2ccc(C)s2)[nH]n1)C1CC1 — higher, -3.98%
- NC(=O)CN(C(=O)Cc1ccc(C(F)(F)F)cc1)C1CCCC1 — lower, -7.24%
- CC(C)C(C(=O)NCc1ccccc1-n1cccn1)N(C)C (stereo not drawn) — lower, -7.79%
- N#Cc1c(Cl)nsc1NCC1(c2ccccc2)CCC1 — higher, 17.1%
- NC(=O)CN(C(=O)Cc1cccc(C(F)(F)F)c1)C1CCCC1 — higher, -2.84%
- CS(=O)(=O)c1nnc(NC(=O)CCc2cccc(Cl)c2)[nH]1 — lower, -7.49%
- COc1ccc(CN(C)c2ncc(S(N)(=O)=O)s2)c(OC)c1 — higher, -4.13%
- CSC(CNS(C)(=O)=O)c1cccc(Cl)c1 (stereo not drawn) — higher, 24%
- CSC(CNS(N)(=O)=O)c1cccc(Cl)c1 (stereo not drawn) — higher, -1.44%
- CN(CCn1cccn1)S(=O)(=O)c1cccc(Cl)c1C#N — higher, -7.08%
- CCCn1nc(-c2nc(COC)no2)ccc1=O — higher, -6.41%
- Cc1noc(COCC(=O)Nc2cc(C)c(Br)cn2)n1 — higher, 4.04%
- O=S(=O)(Cc1cccc2cccnc12)NC(CO)c1ccco1 (stereo not drawn) — lower, -9.35%
- O=S(=O)(Cc1ccccc1F)NC(CO)c1ccco1 (stereo not drawn) — higher, 18.8%
- COc1ncc(NCc2csc(-c3ccco3)n2)cc1C(N)=O — lower, -11%
- COCC1CN(C(=O)Nc2cc(Cl)ccc2F)CCO1 (stereo not drawn) — lower, -8.58%
- Cc1cccc(OCc2nnc(SCC3CCCN(C)C3)o2)c1 (stereo not drawn) — higher, -5.28%
- CCC(C(=O)N1CCCN(CCN(C)C)CC1)N1CCCC1=O (stereo not drawn) — higher, 0.544%
- Cc1csc(C2(NCC(O)COC(C)C)CCCC2)n1 (stereo not drawn) — lower, -11.4%
- CC1CN(C)CCN1C(=O)NCCCn1ccnc1 (stereo not drawn) — higher, -1.11%
- Cn1cc(C(C)(O)CNc2ccccn2)cn1 (stereo not drawn) — higher, 2.38%
- COCC(=O)NCCC(=O)N1CCN(S(=O)(=O)c2ccc(Br)cc2)CC1 — higher, 13.5%
- COCC(=O)NCCC(=O)N1CCN(S(=O)(=O)c2cccc(Br)c2)CC1 — higher, -2.7%
- N#Cc1cc(F)c(NCc2ccc(F)cc2)c(F)c1 — higher, 15.5%
- CCN(CC)C(=O)CNS(=O)(=O)c1cc(Br)ccc1F — higher, -5.2%
- Cc1c(C(C)NC(=O)Nc2ccccc2F)cnn1C (stereo not drawn) — higher, -5.46%
- Cc1cnc(C(=O)N2CC[C@@H]3CN(c4ncccn4)CCO[C@@H]3C2)cn1 — higher, -4.8%
- O=C(c1ccco1)N1CCc2ncc(CN3CCOCC3)n2CC1 — higher, 18.7%
- COc1ccc(CNC(=O)c2nc3c(s2)CCN(C(C)=O)CC3)cc1 — lower, -11.1%
- Cc1ccccc1C(=O)N1CCC2(CC1)CC(c1cnn(C)c1)CO2 (stereo not drawn) — lower, -11.9%
- Cn1cc(C2COC3(CCN(C(=O)c4cnccn4)CC3)C2)cn1 (stereo not drawn) — lower, -12.7%
- Cn1cc(C2COC3(CCN(C(=O)c4cccc(O)c4)CC3)C2)cn1 (stereo not drawn) — lower, -11.7%
- O=S(=O)(c1ccccc1)N1CCC2(CCCN2Cc2ccccc2Cl)C1 (stereo not drawn) — higher, 22.5%
- Cc1ccc(CN2CCn3c(CNS(C)(=O)=O)nnc3C2)s1 — higher, 22.6%
- CS(=O)(=O)NCc1nnc2n1CCN(Cc1ccncc1)C2 — higher, 20.1%
- O=S(=O)(c1ccccc1)N1CCC2(CCCN2Cc2ccc(Cl)cc2)C1 (stereo not drawn) — higher, -7.11%
- CS(=O)(=O)NCc1nnc2n1CCN(Cc1ccccn1)C2 — lower, -9%
- Cn1cc(C[C@H]2[C@H](O)CCN2Cc2ccc3c(c2)OCO3)cn1 — higher, 6.92%
- O=C(Nc1ccccc1)[C@H]1C[C@@H]2CN(Cc3cccnc3)C[C@H]1O2 — higher, -5.98%
- O=C(c1ccnnc1)N1CCN2C[C@H](OCc3ccccn3)C[C@H]2C1 — higher, -4.04%
- c1cncc(CN2CCCC3(COCCN(c4nccs4)C3)C2)c1 (stereo not drawn) — higher, -5.78%
- COc1ccc(CN2C[C@H]3C[C@H](C(=O)Nc4cccnc4)[C@@H](C2)O3)cc1 — higher, -3.51%
- Cn1cc(CN2CC[C@@H](O)[C@@H]2Cc2ccccc2)cn1 — lower, -7.36%
- Cc1n[nH]cc1CNC(C)c1cccc(N2CCCC2=O)c1 (stereo not drawn) — higher, 14.3%
- CNCc1nc(-c2ccc3c(c2)OCO3)c[nH]1 — lower, -13.6%
- Cc1occc1C(=O)N1CCC2(CC1)CC(OCc1ccccn1)CO2 (stereo not drawn) — higher, 11.9%
- Cc1nnc(N2CC[C@H]3C[C@@H](C(=O)N4CCCC4)O[C@H]3C2)s1 — higher, 12.6%
- Cc1cc(C(=O)N2CC[C@]3(C[C@@H](OCc4ccccn4)CO3)C2)c(C)o1 — higher, 17.1%
- Cc1cc(C(=O)N2CCn3cc(CN4CCOCC4)nc3C2)no1 — higher, -7.09%
- O=C(NC1CC1)N1CCc2ncc(CN3CCOCC3)n2CC1 — lower, -16%
- O=C(C1CCOCC1)N1CCc2ncc(CN3CCOCC3)n2CC1 — lower, -11.5%
- Cc1nnc(N2CC[C@H]3C[C@H](C(=O)N(C)C)O[C@@H]3C2)s1 — lower, -7.89%
- CNC(=O)[C@H]1C[C@@H]2CCN(c3nnc(C)s3)C[C@@H]2O1 — lower, -8.39%
- Cc1occc1C(=O)N1CCC[C@]2(C[C@@H](OCc3ccccn3)CO2)C1 — lower, -9.42%
- CS(=O)(=O)NCc1nnc2n1CCN(Cc1cccs1)CC2 — higher, -4.32%
- O=C(NC1CCCCC1)N1CCc2onc(COc3cccnc3)c2C1 — higher, -6.55%
- O=C(c1cccs1)N1CCCC2(COCCN(c3cccnc3)C2)C1 (stereo not drawn) — higher, -6.3%
- O=C(c1ccc[nH]1)N1CCc2onc(COc3cccnc3)c2C1 — higher, -4.03%
- Cc1ccccc1CN1C[C@@H](C(=O)N2CCCCO2)C[C@H]2OCC[C@H]21 — lower, -7.46%
- O=C(NCc1ccccn1)[C@H]1COC[C@H]2CN(C3CCCC3)C[C@H]21 — higher, 40.2%
- CN(C)C(=O)[C@H]1C[C@H]2OCC[C@H]2N(Cc2ccc3ccccc3n2)C1 — higher, 17.2%
- c1cnc(N2CCOCC3(CCCN(Cc4cccs4)C3)C2)nc1 (stereo not drawn) — higher, 19.9%
- c1cncc(N2CCOCC3(CN(Cc4cccs4)CCO3)C2)c1 (stereo not drawn) — higher, 19.2%
- Cn1cc(CN2CCCC3(COCCN(c4cccnc4)C3)C2)cn1 (stereo not drawn) — higher, -6.27%
- CC(C)CCN1C[C@H]2C[C@H](C(=O)Nc3cccnc3)[C@@H](C1)O2 — higher, -6.02%
- CN1CCN(C2COC3(CCN(Cc4ccc(F)cc4)CC3)C2)CC1 (stereo not drawn) — lower, -11.8%
